“Also recorded” adds a separate entry of the source. Structures can show the parent of a compound that is named as a salt.
Key:
[1] = Hydrolysis kinetics of bleach activator storage solutions by HPLC analysis; format: physicochemical; settings: 10% solution, pH 5, room temperature
Text: Because the concentration of hydroxide ion, OH^−, in the cationic bleach activator solution is almost constant by using a buffer (pH 5), the decrease in the concentration of bleach activator can be expressed as equation 1:
[formula] wherein, [C] is the concentration of bleach activator at time t and k is the pseudo first order rate constant of hydrolysis. See M. B. Smith and J. March, March's Advanced Organic Chemistry: Reactions, Mechanisms, and Structure, 5th ed. (New York: Wiley, 2001) 291.
Equation 2 then can be derived from equation 1:
[formula] wherein, C0 and Ct are the concentration of bleach activator at initial time and time t, respectively.
(§1) Aqueous solutions (10% w/w) of cationic bleach activators 3a–3e were prepared using pH 5 buffer solution. A buffer solution of pH 5 was made using sodium acetate (0.1 M)/acetic acid. Each solution was stored in an amber glass bottle at room temperature.
The HPLC (Waters Breeze HPLC system, Waters Corporation, Milford, Mass., United States of America) with a C18 reverse-phase column (Waters Symmetry C18, 5 μm) was used to analyze the hydrolysis behaviors of the cationic bleach activators 3a–3e during storage. On the selected day, a 0.5 mL aliquot was withdrawn from each storage solution of 3a–3e and diluted with 24.5 mL of water. A 10-μL sample of the solution was injected into the HPLC. For the mobile phase, the gradient program using water with 0.005M heptanesulphonic acid as a solvent A and acetonitrile as a solvent B was used (Table 2). The flow rate was 1 mL/min.

[2] = Bleaching of cotton fabric with bleach activators, CIE whiteness index measurement; settings: stored 10% w/w aqueous solutions, pH 5, bleaching at 70° C. for 50 min
Protocol: On the same day of the AvO measurement, bleaching was carried out with storage solutions of the bleach activators 3a–3e. Two grams of each solution was added to the bleaching solution, which comprised a wetting agent (1 g/L), stabilizer (1 g/L), NaOH (50% w/w, 3 g/L) and H2O2 (50% w/w, 3 g/L). Cotton fabric (10 g) was bleached in a laboratory IR dyeing machine (Ahiba Nuance, Datacolor International, Lawrenceville, N.J., United States of America) at a liquor ratio of 10:1. The temperature was raised to 70° C. at the rate of 4° C./min. After 50 min of bleaching, the bleaching bath was cooled to room temperature. The bleached fabric was rinsed thoroughly in tap water and air-dried.
The CIE Whiteness Index (WI) value was obtained for the bleached fabric using AATCC Test Method 110–1995. See AATCC Technical Manual, vol 75 (Research Triangle Park: American Association of Textile Chemists and colorists, 2000), the disclosure of which is incorporated herein by reference in its entirety.
The whiteness was measured on a UV calibrated Datacolor Spectraflash SF 600X (Datacolor Corporation, Lawrenceville, N.J., United States of America), under illuminant D65 using the 10° standard observer with specular and UV component included. Each sample was folded twice to give an opaque sample with four plies and whiteness was measured four times at different surfaces. The average value of CIE WI was recorded.

[3] = Available oxygen (AvO) of bleach activator storage solutions by modified iodometric titration; format: physicochemical; settings: 10% w/w aqueous solution, pH 5 buffer, room temperature storage
Text: Active or available oxygen (AvO) is a useful parameter for assessing the oxidizing power of hydrogen peroxide or peracids from bleach activators. See American Standard Test Method D 2180–89 (West Conshohocken: ASTM International, 2003); and J. K. Grime, A. D. Clauss and K. A. Leslie, Tenside Surf. Det., 29 (1992) 23. A modified iodometric titration method was used to measure the AvO of the presently disclosed bleach activators. See J. J. Lee, S. Lim, P. Hauser and D. Hinks, Color. Technol., 121 (2005) 37.
as §1
AvO of a bleach activator was measured using a previously described procedure. See J. J. Lee, S. Lim, P. Hauser and D. Hinks, Color. Technol., 121 (2005) 37, the disclosure of which is incorporated herein by reference in its entirety.
On the selected day, the pH value of each storage solution was recorded and a 2 mL aliquot was withdrawn and added to a mixture of deionized water, stabilizer (1 g/L), Na2CO3 (14 g/L) and H2O2 (50% w/w, 0.5 g/L) to make a total volume of 200 mL. Crushed ice (180 g) was added to the sample solution while stirring. Acetic acid (50 mL) and potassium iodide solution (10 mL, 10% w/v) were then added separately. Using 0.025N sodium thiosulfate solution, the sample solution was titrated until it turned colorless. AvO (ppm) of a bleach activator was calculated using Equation 3.
[formula] wherein, Vtotal and VH2O2 are the volume (mL) of Na2S2O3 solution required for the titration of sample and blank respectively.

[4] = compared with conventional peroxide bleaching; cited from earlier work

Row | Structure (SMILES) | melting point | hydrolytic stability under typical storage conditions [1] | rate of decrease of AvO over storage time [3] | pseudo first order rate constant of hydrolysis (ranking) [1] | also measured
1 | CC[N+](CC)(CC)Cc1ccc(C(=O)N2CCCC2=O)cc1 (as salt: chloride) [Compound 3a, N-[4-(triethylammoniomethyl)benzoyl] butyrolactam chloride] | 228 to 230 °C |  |  |  | 
2 | CC[N+](CC)(CC)Cc1ccc(C(=O)N2CCCC2=O)cc1 [Compound 3a, N-[4-(triethylammoniomethyl)benzoyl] butyrolactam chloride] |  | more stable than TBCC |  | smaller than that of TBCC | 
3 | CC[N+](CC)(CC)Cc1ccc(C(=O)N2CCCCC2=O)cc1.[Cl-] [Compound 3b, N-[4-(triethylammoniomethyl)benzoyl] valerolactam chloride] | 187 to 189 °C |  | decreased the fastest | greatest | change of CIE-WI of cotton fabric bleached with stored activator solutions over storage time [2]: decreased fastest; rate constant of hydrolysis, times greater than that of 3c or TBCC [1]: two times greater
4 | CC[N+](CC)(CC)Cc1ccc(C(=O)N2CCCCCC2=O)cc1.[Cl-] [Compound 3c, N-[4-(triethylammoniomethyl)benzoyl] caprolactam chloride] | 212 to 214 °C |  | second to that of 3b |  | bleaching performance [4]: satisfactory bleaching performance in a shorter time and at lower temperatures than conventional peroxide bleaching
5 | CC[N+](CC)(CC)Cc1ccc(C(=O)N2CCCCCCCC2=O)cc1 [Compound 3e, N-[4-(triethylammoniomethyl)benzoyl] octalactam chloride] |  | more stable than TBCC; also recorded: the most stable compound | decreased the slowest | smaller than that of TBCC | change of CIE-WI of cotton fabric bleached with stored activator solutions over storage time [2]: decreased slowest; rate constant of hydrolysis, times smaller than that of 3a [1]: about 3 times; rate constant of hydrolysis, times smaller than that of TBCC [1]: ~7 times

The next lines start with results.

Row | melting point | hydrolytic stability under typical storage conditions [1] | rate of decrease of AvO over storage time [3] | Structure (SMILES) | pseudo first order rate constant of hydrolysis (ranking) [1] | also measured
6 | 194 to 196 °C |  |  | CC[N+](CC)(CC)Cc1ccc(C(=O)N2CCCCCCC2=O)cc1 (as salt: chloride) [Compound 3d, N-[4-(triethylammoniomethyl)benzoyl] heptalactam chloride] |  | 
7 | 183 to 185 °C |  |  | CC[N+](CC)(CC)Cc1ccc(C(=O)N2CCCCCCCC2=O)cc1 (as salt: chloride) [Compound 3e, N-[4-(triethylammoniomethyl)benzoyl] octalactam chloride] |  | 
8 |  | more stable than TBCC |  | CC[N+](CC)(CC)Cc1ccc(C(=O)N2CCCCCCC2=O)cc1 [Compound 3d, N-[4-(triethylammoniomethyl)benzoyl] heptalactam chloride] | smaller than that of TBCC | 

Reference: patent US7179779B1, “Cationic bleach activator with enhanced hydrolytic stability” (North Carolina State University, priority 2006, dated 2007)
